# Measured values reported in ChEMBL document CHEMBL1201862, “PubChem BioAssay data set” (2004).
# Calls of active or inactive are those of the source.
# What was measured:
# Vero [1] = assay: cells; assay type: functional, cell-based; settings: Chlorocebus sabaeus
# Vero [2] = assay: cells; assay type: functional; settings: Chlorocebus sabaeus
# Protein skinhead-1 = biological target: T1, Protein skinhead-1 (Caenorhabditis elegans, UniProt P34707); assay type: functional
# T1 sequence (P34707 whole entry): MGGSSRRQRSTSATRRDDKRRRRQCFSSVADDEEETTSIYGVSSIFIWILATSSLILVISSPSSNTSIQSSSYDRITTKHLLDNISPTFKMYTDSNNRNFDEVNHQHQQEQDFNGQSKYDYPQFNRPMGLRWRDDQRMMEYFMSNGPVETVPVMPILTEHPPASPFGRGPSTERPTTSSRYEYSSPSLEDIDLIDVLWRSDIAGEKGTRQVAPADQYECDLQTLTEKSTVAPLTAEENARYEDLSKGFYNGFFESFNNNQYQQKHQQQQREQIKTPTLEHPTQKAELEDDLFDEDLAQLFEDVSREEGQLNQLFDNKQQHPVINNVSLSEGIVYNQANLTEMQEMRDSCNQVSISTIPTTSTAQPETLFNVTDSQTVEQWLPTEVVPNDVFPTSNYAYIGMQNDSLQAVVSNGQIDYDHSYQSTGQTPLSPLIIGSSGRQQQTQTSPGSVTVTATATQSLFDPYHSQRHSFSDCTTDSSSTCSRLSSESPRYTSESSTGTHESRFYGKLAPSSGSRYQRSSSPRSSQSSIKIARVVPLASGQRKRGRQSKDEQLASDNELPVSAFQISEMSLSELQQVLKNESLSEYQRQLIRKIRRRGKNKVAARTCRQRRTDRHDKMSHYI
# Leucine aminopeptidase = biological target: T2, Leucine aminopeptidase (Plasmodium falciparum 3D7, UniProt Q8IL11); assay: P. falciparum M17LAP inhibitors, primary screen, biochemical, fluorogenic H-Leu-NHMec substrate, 1536-well (AID 1619); assay type: functional
# T2 sequence (Q8IL11 whole entry): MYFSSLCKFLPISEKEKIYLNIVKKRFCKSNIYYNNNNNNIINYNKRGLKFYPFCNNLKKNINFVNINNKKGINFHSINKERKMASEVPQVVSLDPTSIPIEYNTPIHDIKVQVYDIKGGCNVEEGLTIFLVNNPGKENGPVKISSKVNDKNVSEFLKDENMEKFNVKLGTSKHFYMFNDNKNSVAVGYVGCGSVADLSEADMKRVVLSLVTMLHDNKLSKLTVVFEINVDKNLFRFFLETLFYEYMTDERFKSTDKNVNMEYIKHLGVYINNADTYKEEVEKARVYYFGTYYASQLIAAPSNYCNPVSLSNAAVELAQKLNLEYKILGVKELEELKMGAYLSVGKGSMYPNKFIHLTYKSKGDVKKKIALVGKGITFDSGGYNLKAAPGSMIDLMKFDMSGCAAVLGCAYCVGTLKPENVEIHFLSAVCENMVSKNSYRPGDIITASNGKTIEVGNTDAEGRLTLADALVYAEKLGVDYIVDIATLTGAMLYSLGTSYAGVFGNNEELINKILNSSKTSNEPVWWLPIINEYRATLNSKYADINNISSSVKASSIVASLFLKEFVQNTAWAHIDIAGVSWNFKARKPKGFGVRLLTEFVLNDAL
# Large T antigen = Large T antigen (Simian virus 40, UniProt P03070); assay type: functional, Betapolyomavirus macacae;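 also: Confirmatory-stage PubChem screen for compounds that inhibit SV40 T antigen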
# Chain of Large T antigen (P03070 whole entry): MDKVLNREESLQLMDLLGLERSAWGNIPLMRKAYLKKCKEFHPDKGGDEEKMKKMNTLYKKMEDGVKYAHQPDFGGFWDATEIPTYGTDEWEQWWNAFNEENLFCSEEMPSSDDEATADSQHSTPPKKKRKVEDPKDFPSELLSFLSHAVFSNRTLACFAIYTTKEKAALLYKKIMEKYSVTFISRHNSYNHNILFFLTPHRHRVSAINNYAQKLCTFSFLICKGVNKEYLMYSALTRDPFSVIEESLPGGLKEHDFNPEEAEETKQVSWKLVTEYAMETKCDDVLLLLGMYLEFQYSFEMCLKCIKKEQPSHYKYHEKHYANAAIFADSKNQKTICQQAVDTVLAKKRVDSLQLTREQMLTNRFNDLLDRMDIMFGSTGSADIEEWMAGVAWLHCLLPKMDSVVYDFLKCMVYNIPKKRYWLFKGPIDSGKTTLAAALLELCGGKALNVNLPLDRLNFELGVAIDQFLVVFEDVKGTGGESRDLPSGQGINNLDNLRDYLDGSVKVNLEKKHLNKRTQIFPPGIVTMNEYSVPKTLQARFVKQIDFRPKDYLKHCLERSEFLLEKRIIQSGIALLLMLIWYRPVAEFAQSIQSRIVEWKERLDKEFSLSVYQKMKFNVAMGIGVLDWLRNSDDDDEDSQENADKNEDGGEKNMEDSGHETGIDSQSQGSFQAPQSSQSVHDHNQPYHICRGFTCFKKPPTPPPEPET
# [3] = biological target: T3, Corticotropin-releasing factor receptor 2/Corticotropin-releasing factor-binding protein (Homo sapiens, UniProt P24387+Q13324); assay: activators of CRF receptor 2 with binding protein – uHTS hits, confirmation (AID 602473); assay type: functional; settings: read-out: EC50_Mean
# T3 sequence (Q13324 whole entry): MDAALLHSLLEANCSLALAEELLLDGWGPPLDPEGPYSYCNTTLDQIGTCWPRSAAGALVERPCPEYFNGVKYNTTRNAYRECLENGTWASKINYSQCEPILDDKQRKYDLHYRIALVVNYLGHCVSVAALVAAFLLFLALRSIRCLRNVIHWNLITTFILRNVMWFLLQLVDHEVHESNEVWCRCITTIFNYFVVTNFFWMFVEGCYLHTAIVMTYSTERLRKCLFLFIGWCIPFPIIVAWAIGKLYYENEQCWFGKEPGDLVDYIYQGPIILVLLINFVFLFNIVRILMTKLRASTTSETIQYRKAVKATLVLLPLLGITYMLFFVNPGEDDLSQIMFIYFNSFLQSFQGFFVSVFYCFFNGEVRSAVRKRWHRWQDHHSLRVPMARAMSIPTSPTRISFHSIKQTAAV
# T3 sequence (P24387 whole entry): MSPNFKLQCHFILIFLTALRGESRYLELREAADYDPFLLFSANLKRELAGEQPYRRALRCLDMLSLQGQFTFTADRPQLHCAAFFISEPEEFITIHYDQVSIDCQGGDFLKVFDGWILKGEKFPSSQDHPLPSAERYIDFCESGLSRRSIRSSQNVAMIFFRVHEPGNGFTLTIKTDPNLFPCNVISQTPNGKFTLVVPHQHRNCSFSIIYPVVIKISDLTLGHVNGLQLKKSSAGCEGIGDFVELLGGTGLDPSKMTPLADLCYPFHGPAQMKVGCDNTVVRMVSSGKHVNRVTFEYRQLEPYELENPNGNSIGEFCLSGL
# [4] = biological target: T4, Ubiquitin-conjugating enzyme E2 N (Homo sapiens, UniProt P61088); assay type: functional;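 also: Dose-response confirmation in a TR-FRET assay detecting UBC13-driven polyubiquitin chain formation, inhibition measured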
# T4 sequence (P61088 whole entry): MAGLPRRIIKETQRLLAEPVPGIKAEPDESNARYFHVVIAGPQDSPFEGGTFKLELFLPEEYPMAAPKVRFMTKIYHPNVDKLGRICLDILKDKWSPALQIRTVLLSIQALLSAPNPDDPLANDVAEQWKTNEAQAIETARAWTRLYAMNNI
# [5] = Luminescence Cell-Based Dose Confirmation HTS to Identify Activators of 5'UTR Stem-Loop Driven Alpha-Synuclein mRNA Translation in H4 Neuroglioblastoma Cells. [Related pubchem assays: 1829 (Project Summary), 1814 (Primary HTS)]; assay type: functional
# Streptococcus = assay: Group A Streptococcus viability loss, dose response, counter-screen for streptokinase expression inhibitor project, luminescence, BacTiterGlo (AID 1915); assay type: functional, organism-based;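 also: potency for reduction of bacterial viability or growth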
# [6] = system: Streptococcus sp. 'group A'; assay: growth inhibition of control SK(-) GAS strain, dose response, counter-screen for streptokinase expression inhibitor project, luminescence, kanamycin, BacTiterGlo, confirmation (AID 1900); assay type: functional, organism-based
# Streptokinase A = biological target: T5, Streptokinase A (Streptococcus pyogenes serotype M1, UniProt P10520); assay: S. pyogenes streptokinase expression inhibitors, potency, dose response, plasminogen activation absorbance, OD405 (AID 1914); assay type: functional, Streptococcus pyogenes M1 GAS;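 also: secreted streptokinase activity via plasminogen activation per viability signal from cell pellet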
# T5 sequence (P10520 whole entry): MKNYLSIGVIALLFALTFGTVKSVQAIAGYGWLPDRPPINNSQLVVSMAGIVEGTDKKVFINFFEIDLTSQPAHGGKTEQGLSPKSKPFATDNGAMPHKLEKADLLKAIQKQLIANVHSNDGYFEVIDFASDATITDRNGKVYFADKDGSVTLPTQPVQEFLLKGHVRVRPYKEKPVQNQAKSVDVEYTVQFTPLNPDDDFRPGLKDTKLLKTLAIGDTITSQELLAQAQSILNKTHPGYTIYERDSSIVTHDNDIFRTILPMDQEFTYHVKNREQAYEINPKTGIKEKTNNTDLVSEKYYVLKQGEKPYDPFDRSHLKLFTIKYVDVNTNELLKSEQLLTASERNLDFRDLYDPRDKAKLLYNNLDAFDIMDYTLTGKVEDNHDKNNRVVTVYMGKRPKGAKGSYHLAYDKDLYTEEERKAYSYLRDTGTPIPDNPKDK
# [7] = Luminescence Cell-Based Dose Response HTS to Identify Activators of Luciferase Translation or Activity in H4 […] Cells. [Related pubchem assays: 1829 (Project Summary), 1814 (Primary HTS)]; assay type: functional
# H4 = assay: Luminescence Cell-Based Dose Response HTS to Identify Activators of 5'UTR Stem-Loop Driven Prion Protein mRNA Translation in H4 Neuroglioblastoma Cells. [Related pubchem assays: 1829 (Project Summary), 1814 (Primary HTS)]; assay type: functional; settings: Homo sapiens
# [8] = biological target: Induced myeloid leukemia cell differentiation protein Mcl-1 (Homo sapiens, UniProt Q07820); assay type: functional
# Chain of Induced myeloid leukemia cell differentiation protein Mcl-1 (Q07820 whole entry): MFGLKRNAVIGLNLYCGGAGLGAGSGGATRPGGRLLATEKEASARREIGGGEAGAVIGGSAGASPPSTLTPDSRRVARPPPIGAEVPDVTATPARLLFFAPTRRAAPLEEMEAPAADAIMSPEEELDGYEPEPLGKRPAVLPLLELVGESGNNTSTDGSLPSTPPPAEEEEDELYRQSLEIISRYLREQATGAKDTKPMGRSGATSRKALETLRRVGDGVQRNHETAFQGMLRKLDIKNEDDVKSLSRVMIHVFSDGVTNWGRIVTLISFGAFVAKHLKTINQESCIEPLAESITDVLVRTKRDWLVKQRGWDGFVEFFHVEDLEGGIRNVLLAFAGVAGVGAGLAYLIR
# [9] = biological target: T3, Corticotropin-releasing factor receptor 2/Corticotropin-releasing factor-binding protein; assay: Dose Response confirmation of uHTS hits for small molecule antagonists of the CRF-binding protein and CRF-R2 receptor complex.; assay type: functional; settings: read-out: IC50_Mean
# [10] = microbe, parasite or virus in culture; assay type: functional; settings: Mycobacterium tuberculosis
# Genome polyprotein = Genome polyprotein (dengue virus type 2, UniProt P29990); assay: Dengue-2 NS5 methyltransferase inhibitors, primary screen, biochemical, confirmation dose response (AID 588689); assay type: functional
# Chain of Genome polyprotein (P29990 2492-3391 limits assumed): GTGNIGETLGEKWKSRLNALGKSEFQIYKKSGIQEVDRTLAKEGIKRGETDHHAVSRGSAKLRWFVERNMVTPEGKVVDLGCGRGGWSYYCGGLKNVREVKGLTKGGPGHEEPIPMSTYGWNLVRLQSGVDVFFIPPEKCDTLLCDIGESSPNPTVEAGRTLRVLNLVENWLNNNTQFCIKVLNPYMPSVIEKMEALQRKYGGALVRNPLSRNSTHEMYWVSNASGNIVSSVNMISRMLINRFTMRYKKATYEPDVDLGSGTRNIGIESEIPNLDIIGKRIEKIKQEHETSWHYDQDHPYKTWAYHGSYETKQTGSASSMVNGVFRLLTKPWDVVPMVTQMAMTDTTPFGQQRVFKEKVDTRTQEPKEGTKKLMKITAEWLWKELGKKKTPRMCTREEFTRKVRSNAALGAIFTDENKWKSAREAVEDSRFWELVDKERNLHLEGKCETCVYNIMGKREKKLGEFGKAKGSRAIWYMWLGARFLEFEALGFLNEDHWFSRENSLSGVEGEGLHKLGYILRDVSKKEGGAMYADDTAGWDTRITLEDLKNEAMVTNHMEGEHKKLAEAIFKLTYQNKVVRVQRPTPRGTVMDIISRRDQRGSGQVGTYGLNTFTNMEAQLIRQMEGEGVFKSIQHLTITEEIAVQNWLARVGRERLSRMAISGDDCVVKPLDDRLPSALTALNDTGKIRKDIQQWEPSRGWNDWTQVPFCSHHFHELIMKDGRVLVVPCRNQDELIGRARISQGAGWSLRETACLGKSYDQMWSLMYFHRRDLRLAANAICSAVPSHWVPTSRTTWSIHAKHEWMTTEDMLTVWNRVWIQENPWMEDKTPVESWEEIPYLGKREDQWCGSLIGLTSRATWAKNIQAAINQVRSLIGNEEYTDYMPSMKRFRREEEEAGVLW
structure (smiles),measurement,setting,value
Cc1c(/C=N/NC(=O)c2cccs2)c2ccccc2n1Cc1ccccc1Cl,IC50,Vero [1],> 25 µM (active)
same,CC50,Vero [2],> 25 µM (active)
N#C/C(=C\c1ccc(Cl)cc1Cl)c1n[nH]c(Cn2cncn2)n1,IC50,Protein skinhead-1,> 100 µM (inactive)
O=C(c1cnn(C(=O)c2ccccc2)c1)c1ccccc1O,IC50,Leucine aminopeptidase,72.6 µM (active)
CC1=NN(c2ccccc2)C(=O)/C1=C/c1ccc(-c2ccc(C)c(C(=O)O)c2)o1,IC50,Large T antigen,35 µM (active)
O=C1Cc2ccccc2Sc2ccc(O)cc21,EC50,[3],> 53 µM (inactive)
same,IC50,[4],> 20 µM (inactive)
CC1CC(C)CN(Cc2nc(N)nc(Nc3ccc4ccccc4c3)n2)C1 (centres undefined),EC50,[5],> 60 µM (not active)
same,EC50,Streptococcus,> 150 µM (not active)
same,EC50,[6],> 150 µM (not active)
same,EC50,Streptokinase A,> 150 µM (not active)
same,EC50,[7],12.9 µM (active)
same,IC50,Vero [1],> 25 µM (active)
same,CC50,Vero [2],14.1 µM (active)
same,EC50,H4,> 120 µM (not active)
O=C(Nc1ccc(Cl)c(Cl)c1)c1ccccc1,IC50,Protein skinhead-1,> 100 µM (inactive)
CC1=C(C#N)C(=O)N(C2CCS(=O)(=O)C2)C(=O)/C1=C\c1ccc(C)o1 (centres undefined),IC50,[8],1.6 µM (active)
same,IC50,Large T antigen,47.9 µM (active)
CCN(Cc1ccccc1)S(=O)(=O)c1ccc(C(=O)N(CCCN(C)C)c2nc3cc4c(cc3s2)OCO4)cc1,IC50,[4],> 20 µM (inactive)
O=C(Cc1nnc(O)c2ccccc12)OCc1c(Cl)cccc1Cl,IC50,Vero [1],8 µM (active)
O=C(CSc1ccccc1)NN1C(=O)c2ccccc2C1=O,IC50,Leucine aminopeptidase,54.4 µM (active)
same,EC50,[3],> 53 µM (inactive)
same,IC50,[9],> 47.1 µM (inactive)
CCc1cc(/C(Cc2ccccn2)=N\Nc2ccccc2)c(O)cc1O,CC50,[10],> 40 µM (active)
Nc1nc(O)c2c(n1)N=C1C(=C(O)c3ccccc31)C2c1cccc2ccccc12 (centres undefined),IC50,[8],3.73 µM (active)
Nc1nc2c(s1)C(=O)CC(c1ccccc1)C2 (centres undefined),IC50,Leucine aminopeptidase,58.8 µM (active)
Oc1cc2c(cc1O)[C@H]1c3ccccc3CN[C@@H]1CC2,IC50,Large T antigen,80 µM (active)
CCCOC(=O)c1c(NC(=O)C2C3C=CC(C3)C2C(=O)O)sc2c1CCC(C)C2 (centres undefined),IC50,Genome polyprotein,50.3 µM (active)
COc1ccc(/C=C/C(=O)c2ccc(O)cc2)cc1CN1CCOCC1,IC50,Vero [1],8.49 µM (active)
same,CC50,Vero [2],> 25 µM (active)
CN(C)C(S)=Nc1ccc(N2CCOCC2)cc1,IC50,Large T antigen,11 µM (active)
c1ccc2c(c1)CCN(c1nc(CN3CCOCC3)nc3sc4c(c13)CCCC4)C2,CC50,[10],> 40 µM (active)
CCn1c(SCC(=O)Nc2nc3ccc(C)cc3s2)nc2c(c1=O)SC(C)C2 (centres undefined),CC50,[10],> 40 µM (active)
O=C(CSc1nnnn1C1CCCCC1)Nc1nc2c(s1)CCCC2,CC50,[10],> 40 µM (active)
O=C(NCc1ccco1)C1CC(=O)N(c2ccc(O)cc2)C1 (centres undefined),IC50,Large T antigen,19.8 µM (active)
Cc1ccc(NC(=O)CSc2nnc[nH]2)cc1,IC50,Leucine aminopeptidase,34 µM (active)
CC(=O)/C(C#N)=C1\NC(=O)C(Cc2ccc(C)c(C)c2)S1 (centres undefined),IC50,Vero [1],5.04 µM (active)
same,CC50,Vero [2],> 25 µM (active)
CC(=O)c1ccc(OCCCC(=O)n2nnc3ccccc32)cc1,IC50,Leucine aminopeptidase,61.9 µM (active)
COc1cc(C(CCN2CCCCC2)c2c(OC)cc(OC)c3c(-c4ccccc4)cc(=O)oc23)cc(OC)c1OC (centres undefined),IC50,[4],> 20 µM (inactive)
same,CC50,Vero [2],> 25 µM (active)
Nc1ccc(OCCCc2c(N)nc(N)nc2N)cc1,IC50,Large T antigen,7.73 µM (active)
same,IC50,[4],> 20 µM (inactive)
O=C(/C=C\c1ccco1)c1ccc(NC(=O)c2ccco2)cc1,IC50,[8],2.78 µM (active)
COc1ccc(OC)c(NC(=O)[C@H]2CC=CC[C@H]2C(=O)O)c1,IC50,Leucine aminopeptidase,18.5 µM (active)
Cc1c(Nc2nc3ccccc3nc2NS(=O)(=O)c2ccccc2)c(=O)n(-c2ccccc2)n1C,IC50,Leucine aminopeptidase,68.1 µM (active)
COc1cc(C=C(C(C)=O)C(C)=O)ccc1O,IC50,Large T antigen,8.18 µM (active)
C/C(=N\NC(=O)CSCc1ccc([N+](=O)[O-])cc1)c1cccc(Br)c1,IC50,[4],> 20 µM (inactive)
CCc1ccc(/N=C\C23c4ccccc4C(c4ccccc42)C2C(=O)N(c4ccc(OC)cc4)C(=O)C23)cc1 (centres undefined),CC50,[10],> 40 µM (active)
